According to patent US11071731B2, “Allosteric modulators of the mu opioid receptor” (Chiromics, LLC, priority 2017, dated 2021):

Columns and labels:
mu opioid receptor (MOR) [1] = target: T1, mu opioid receptor (MOR) (Homo sapiens, UniProt P35372); assay: Hit Hunter cAMP signaling assay (adenylyl cyclase inhibition), PAM mode with EC20 endomorphin-1; assay type: cell-based
mu opioid receptor (MOR) [2] = target: T1, mu opioid receptor (MOR); assay: PathHunter β-arrestin recruitment assay, PAM mode with EC20 endomorphin-1; assay type: cell-based; details: for EC50: read-out: β-arr. EC50
Procedure: The effects of MOR PAMs and MOR SAMs on receptor activity were assayed using the PathHunter enzyme complementation assay technology (DiscoveRx, CA). A description of the technology employed is as follows.
Beta-Arrestin Pathway: The PathHunter β-arrestin assay monitors the activation of a GPCR in a homogenous, non-imaging assay format using a technology developed by DiscoveRx called Enzyme Fragment Complementation (EFC) with beta-galactosidase (β-Gal) as the functional reporter. […] EA is fused to β-Arrestin and ED is fused to the GPCR of interest. When the GPCR is activated and β-arrestin is recruited to the receptor, ED and EA complementation occurs, restoring β-gal activity, which is measured using chemiluminescent PathHunter Detection Reagents.
In this manner an EC50 for each test compound, and percent maximal response for each test compound, were determined for both the β-arrestin and cAMP pathways. Though the pharmacological effects of a given signal bias can be hypothesized (Raehal et al. (2011) Pharmacol. Rev. 63:1001-1019), it is not possible to know with certainty which bias ratio will be most advantageous in a clinical setting. […] Kenakin 2015a, supra. The information associated with the compounds detailed herein is the first large data set available for the prediction of ligand bias for an MOR PAM.

[3] = cAMP EC50, adenylyl cyclase inhibition
[4] = maximal response for adenylyl cyclase inhibition
[5] = maximal response for β-arrestin recruitment
[6] = adenylyl cyclase inhibition, read-out: cAMP EC50
[7] = maximal response, adenylyl cyclase inhibition
[8] = maximal response, β-arrestin recruitment

T1 sequence (P35372 whole entry): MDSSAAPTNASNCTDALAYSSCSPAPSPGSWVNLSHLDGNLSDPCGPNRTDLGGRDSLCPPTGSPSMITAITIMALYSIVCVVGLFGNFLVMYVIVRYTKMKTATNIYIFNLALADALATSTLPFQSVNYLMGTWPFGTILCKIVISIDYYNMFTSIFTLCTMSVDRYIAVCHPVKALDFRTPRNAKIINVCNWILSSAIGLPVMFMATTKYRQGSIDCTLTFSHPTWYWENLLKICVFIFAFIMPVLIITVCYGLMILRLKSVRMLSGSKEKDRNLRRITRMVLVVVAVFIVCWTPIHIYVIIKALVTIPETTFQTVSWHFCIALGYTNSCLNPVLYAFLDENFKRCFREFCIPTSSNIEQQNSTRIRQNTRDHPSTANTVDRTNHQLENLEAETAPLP

Fc1cccc(C2CCCCN2c2nccc(Cl)n2)n1 (centres unmarked) [compound 260]
EC50 (mu opioid receptor (MOR) [1]; [3]): > 2100 nM | cAMP Max. Resp. (mu opioid receptor (MOR) [1]; [4]): D (D represents a maximal response of < 40%) | β-arr Max. Resp. (mu opioid receptor (MOR) [2]; [5]): D (D represents a maximal response of < 40%) | EC50 (mu opioid receptor (MOR) [2]; β-arrestin recruitment): > 2100 nM

N#Cc1ccc(C2CCCCN2S(=O)(=O)c2ccc(Cl)cc2)cc1C(F)(F)F (racemic) [compound 49]
EC50 (mu opioid receptor (MOR) [1]; [6]): > 2100 nM | cAMP Max. Resp. (mu opioid receptor (MOR) [1]; [4]): F (F represents a maximal response of > 60%) | β-arr Max. Resp. (mu opioid receptor (MOR) [2]; [5]): F (F represents a maximal response of > 60%) | EC50 (mu opioid receptor (MOR) [2]; β-arrestin recruitment): > 2100 nM

C#Cc1ccccc1N1CCCCC1c1ccc(F)c(Cl)c1 (centres unmarked) [compound 463]
EC50 (mu opioid receptor (MOR) [1]; [6]): > 2100 nM | cAMP Max. Resp. (mu opioid receptor (MOR) [1]; [7]): D (D represents a maximal response of < 40%) | β-arr Max. Resp. (mu opioid receptor (MOR) [2]; [8]): D (D represents a maximal response of < 40%) | EC50 (mu opioid receptor (MOR) [2]; β-arrestin recruitment): > 2100 nM

O=S(=O)(c1cccc(Cl)c1)N1CCCCC1c1cccc(C(F)(F)F)c1 (centres unmarked) [Compound 21]
EC50 (mu opioid receptor (MOR) [1]; [6]): > 2100 nM | cAMP Max. Resp. (mu opioid receptor (MOR) [1]; [4]): F (F represents a maximal response of > 60%) | β-arr Max. Resp. (mu opioid receptor (MOR) [2]; [5]): F (F represents a maximal response of > 60%) | EC50 (mu opioid receptor (MOR) [2]; β-arrestin recruitment): > 2100 nM

Fc1ccc(N2CCCCC2c2ccc(F)c(Cl)c2)cc1 (centres unmarked) [compound 475]
EC50 (mu opioid receptor (MOR) [1]; [3]): > 2100 nM | cAMP Max. Resp. (mu opioid receptor (MOR) [1]; [7]): D (D represents a maximal response of < 40%) | β-arr Max. Resp. (mu opioid receptor (MOR) [2]; [8]): F (F represents a maximal response of > 60%) | EC50 (mu opioid receptor (MOR) [2]; β-arrestin recruitment): > 2100 nM

Fc1cc(C2COCCN2c2nc(Cl)ncc2F)cc(C(F)(F)F)c1 (racemic) [Compound 190]
EC50 (mu opioid receptor (MOR) [1]; [6]): < 700 nM | cAMP Max. Resp. (mu opioid receptor (MOR) [1]; [4]): F (F represents a maximal response of > 60%) | β-arr Max. Resp. (mu opioid receptor (MOR) [2]; [5]): F (F represents a maximal response of > 60%) | EC50 (mu opioid receptor (MOR) [2]; β-arrestin recruitment): 700 to 2100 nM

Fc1cccc(C2CCCCN2c2ccnc(Cl)n2)n1 (centres unmarked) [compound 259]
EC50 (mu opioid receptor (MOR) [1]; [3]): > 2100 nM | cAMP Max. Resp. (mu opioid receptor (MOR) [1]; [4]): D (D represents a maximal response of < 40%) | β-arr Max. Resp. (mu opioid receptor (MOR) [2]; [5]): D (D represents a maximal response of < 40%) | EC50 (mu opioid receptor (MOR) [2]; β-arrestin recruitment): > 2100 nM

Fc1cc(C2CCCCN2c2nc(Cl)ncc2F)ccc1Br (centres unmarked) [compound 290]
EC50 (mu opioid receptor (MOR) [1]; [3]): < 700 nM | cAMP Max. Resp. (mu opioid receptor (MOR) [1]; [4]): D (D represents a maximal response of < 40%) | β-arr Max. Resp. (mu opioid receptor (MOR) [2]; [5]): F (F represents a maximal response of > 60%) | EC50 (mu opioid receptor (MOR) [2]; β-arrestin recruitment): < 700 nM

O=S(=O)(c1ccc(Cl)cc1)N1CCCCC1c1ccc(OC(F)(F)F)c(Br)c1 (centres unmarked) [compound 43]
EC50 (mu opioid receptor (MOR) [1]; [6]): > 2100 nM | cAMP Max. Resp. (mu opioid receptor (MOR) [1]; [4]): D (D represents a maximal response of < 40%) | β-arr Max. Resp. (mu opioid receptor (MOR) [2]; [5]): F (F represents a maximal response of > 60%) | EC50 (mu opioid receptor (MOR) [2]; β-arrestin recruitment): 700 to 2100 nM

Fc1cc(C2CCC(F)CN2c2nc(Cl)ncc2F)cc(C(F)(F)F)c1 (centres unmarked) [compound 312]
EC50 (mu opioid receptor (MOR) [1]; [6]): < 700 nM | cAMP Max. Resp. (mu opioid receptor (MOR) [1]; [4]): F (F represents a maximal response of > 60%) | β-arr Max. Resp. (mu opioid receptor (MOR) [2]; [5]): F (F represents a maximal response of > 60%) | EC50 (mu opioid receptor (MOR) [2]; β-arrestin recruitment): < 700 nM

COc1ccc(C2CCCCN2c2ncnc(Cl)c2F)cc1Br (centres unmarked) [compound 228]
EC50 (mu opioid receptor (MOR) [1]; [3]): > 2100 nM | cAMP Max. Resp. (mu opioid receptor (MOR) [1]; [4]): F (F represents a maximal response of > 60%) | β-arr Max. Resp. (mu opioid receptor (MOR) [2]; [5]): F (F represents a maximal response of > 60%) | EC50 (mu opioid receptor (MOR) [2]; β-arrestin recruitment): > 2100 nM

Cc1ccc(N2CCCCC2c2ccc(F)c(Cl)c2)cc1 (centres unmarked) [compound 458]
EC50 (mu opioid receptor (MOR) [1]; [3]): > 2100 nM | cAMP Max. Resp. (mu opioid receptor (MOR) [1]; [7]): D (D represents a maximal response of < 40%) | β-arr Max. Resp. (mu opioid receptor (MOR) [2]; [8]): E (E represents a maximal response of 40-60%) | EC50 (mu opioid receptor (MOR) [2]; β-arrestin recruitment): > 2100 nM

COc1ccc(C2C(C)CCCN2c2nc(Cl)ncc2F)cc1Br (centres unmarked) [compound 249]
EC50 (mu opioid receptor (MOR) [1]; [6]): > 2100 nM | cAMP Max. Resp. (mu opioid receptor (MOR) [1]; [4]): E (E represents a maximal response of 40-60%) | β-arr Max. Resp. (mu opioid receptor (MOR) [2]; [5]): F (F represents a maximal response of > 60%) | EC50 (mu opioid receptor (MOR) [2]; β-arrestin recruitment): > 2100 nM

[N-]=[N+]=Nc1ccc(N2CCCCC2c2ccc(F)c(Cl)c2)cc1 (centres unmarked) [compound 462]
EC50 (mu opioid receptor (MOR) [1]; [3]): > 2100 nM | cAMP Max. Resp. (mu opioid receptor (MOR) [1]; [7]): D (D represents a maximal response of < 40%) | β-arr Max. Resp. (mu opioid receptor (MOR) [2]; [8]): E (E represents a maximal response of 40-60%) | EC50 (mu opioid receptor (MOR) [2]; β-arrestin recruitment): > 2100 nM

O=C1CCN(c2nc(Cl)ncc2F)C(c2cccc(C(F)(F)F)c2)C1 (centres unmarked) [compound 239]
EC50 (mu opioid receptor (MOR) [1]; [3]): > 2100 nM | cAMP Max. Resp. (mu opioid receptor (MOR) [1]; [4]): D (D represents a maximal response of < 40%) | β-arr Max. Resp. (mu opioid receptor (MOR) [2]; [5]): E (E represents a maximal response of 40-60%) | EC50 (mu opioid receptor (MOR) [2]; β-arrestin recruitment): > 2100 nM

Fc1c(Cl)cccc1C1CCCCN1c1ccnc(Cl)n1 (centres unmarked) [compound 405]
EC50 (mu opioid receptor (MOR) [1]; [3]): < 700 nM | cAMP Max. Resp. (mu opioid receptor (MOR) [1]; [4]): D (D represents a maximal response of < 40%) | β-arr Max. Resp. (mu opioid receptor (MOR) [2]; [5]): D (D represents a maximal response of < 40%) | EC50 (mu opioid receptor (MOR) [2]; β-arrestin recruitment): < 700 nM

COc1ccc(C2CCCCN2c2ccc(C(F)(F)F)cn2)cc1Br (centres unmarked) [compound 232]
EC50 (mu opioid receptor (MOR) [1]; [3]): > 2100 nM | cAMP Max. Resp. (mu opioid receptor (MOR) [1]; [4]): F (F represents a maximal response of > 60%) | β-arr Max. Resp. (mu opioid receptor (MOR) [2]; [5]): F (F represents a maximal response of > 60%) | EC50 (mu opioid receptor (MOR) [2]; β-arrestin recruitment): > 2100 nM
